The subject of one assay is S. aureus. The assay is described as follows: MIC by agar plate dilution method (CLSI). It is filed as cell-based, Staphylococcus aureus. From the text: P. aeruginosa strains isolated from patients with cystic fibrosis (CF) were obtained from Children's Hospital and Regional Medical Center (Seattle, Wash.). Clinical isolates of Escherichia coli and Staphylococcus aureus were obtained from The Jones Group Laboratories (JMI; North Liberty, Iowa) and The Clinical Microbiology Institute (CMI; Wilsonville, Oreg.). P. aeruginosa 27853, S. aureus 29213, and E. coli 25922 served as quality control strains^1 and were obtained from The America Type Culture Collection (ATCC; Manassas, Va.). P. aeruginosa ATCC 27853, a fosfomycin and tobramycin susceptible strain, was used in macromolecular biosynthesis and tobramycin uptake experiments. Stock cultures were maintained at −80° C. in Cation-Adjusted Mueller-Hinton Broth (CAMHB) (Remel; Lenexa, Kans.) supplemented with 20% glycerol (VWR: West Chester, Pa.). Cultures for routine use were grown on tryptic soy agar plates+5% sheeps blood (PML Microbiologicals Inc.; Wilsonville, Oreg.) and stored at 4° C.
MICs were determined by the agar plate dilution method according to CLSI guidelines (National Committee for Clinical Laboratory Standards. M7-A6. 6th ed. Villanova (Pa.): NCCLS, 2003; M100-S14. Villanova (Pa.): NCCLS, 2004).

Assay [1] relates to Protein Synthesis in P. aeruginosa ATCC 27853. The assay is described as follows: Macromolecular biosynthesis: 3H-amino acid incorporation. It is filed as cell-based, Pseudomonas aeruginosa. Here is the method:
(§1) Picataway, N.J.) and N-acetyl-D-Glucosamine (^3H-NAG) (GE Healthcare Bio-Sciences), respectively (Baum, E Z, Antimicrob Agents Chernother 2001; 45 (11): 3182-3188). A single colony of P. aeruginosa ATCC 27853 was inoculated into 10 mL of CAMHB and incubated for 16 h, at 37° C., 200 rpm in a shaking water bath. […] At various time points, 100 μl aliquots (triplicate) of culture were removed and added to 100 μl of 20% TCA (VWR) in 96-well flat bottom trays (VWR). Plates were incubated on crushed ice for 60 min to precipitate the incorporated ^3H-precursors. Samples were harvested onto glass fibre filters (GFC) (PerkinElmer; Waltham, Mass.). Filters were washed two times with 35 mL of normal saline to remove unincorporated isotope followed by one wash with 35 mL of 90% ETOH (VWR). Filters were dried under a lamp for 1 h to reduce remaining moisture and then sealed in bags containing 5 mL of scintillation cocktail (Betaplate Scint; PerkinElmer). Counts per minute (CPM) were determined using a Wallac MicroBeta Trilux (PerkinElmer). Mean CPM±standard deviation (SD) were determined for each treatment group. Background counts consisting of a media-only sample were subtracted from the no-drug and antibiotic treatment groups. The percent inhibition of incorporation was determined relative to the no-drug controls. The activities of the three drugs were compared by calculating the time to 50% inhibition (T1/2), and statistical differences at each time point were evaluated by the Analysis of Variance (ANOVA; GraphPad Prisma software package 3.03; GraphPad Software, Inc., San Diego, Calif.). Each curve represents 4 replicate experiments, each time point performed in triplicate.

Assay [2] has as its system Cell Wall Synthesis in P. aeruginosa ATCC 27853. The assay is described as follows: Macromolecular biosynthesis: 3H-N-acetyl-D-glucosamine incorporation. It is filed as cell-based, Pseudomonas aeruginosa. As to conditions: at 2 h relative to no-drug control, single experiment. Here is the method:
as §1

Another assay deals with P. aeruginosa ATCC 27853. The assay is described as follows: Tobramycin uptake studies (3H-tobramycin). It is filed as cell-based, Pseudomonas aeruginosa. As to conditions: 10 μg/mL fosfomycin, 3H-tobramycin 2.3 μg/mL, FIG. 7. As for the experimental part:
The effects of fosfomycin uptake on tobramycin uptake were determined by measuring uptake of ^3H-tobramycin. A single colony of P. aeruginosa ATCC 27853 was inoculated into 5 mL nutrient broth (NB) (Difco & BBL; Sparks, Md.) and grown overnight at 37° C. with shaking (250 rpm). […] Five milliliter volumes were filtered through 0.45 μm nitrocellulose membrane filters (Whatman Inc., Florham Park, N.J.), pre-soaked with 410 mM MgCl2 (VWR). […] Data were expressed in CPM and represent the mean±SD of four independent experiments. Statistical differences were evaluated by the Student's t-test.

Like-named read-outs stand apart in the source and are kept apart here.

As usually defined, the MIC is the lowest concentration that inhibits growth of the organism. For orientation: inhibition means the change of the read-out against control, counted positive when it falls.

Take `C[C@@H]1O[C@@H]1P(=O)(O)O` [Fosfomycin, fosfomycin disodium]: the MIC was 2 mg/L in the assay on S. aureus (Staphylococcus aureus, ATCC29213, S. aureus ATCC 29213, read-out: MIC); 1 mg/L with S. aureus (Staphylococcus aureus, S. aureus C051, read-out: MIC); 1 mg/L in the assay on S. aureus (Staphylococcus aureus, S. aureus C053, read-out: MIC); 8 mg/L in the assay on S. aureus (Staphylococcus aureus, S. aureus C055, read-out: MIC); 2 mg/L in the assay on S. aureus (Staphylococcus aureus, S. aureus C057, read-out: MIC). The “time to 50% inhibition (T1/2) of protein synthesis” value in assay [1] (6.4 μg/mL (FIG. 5)) came to 2.42 h. Also, the inhibition at 3.2 µg/mL in assay [1] (Pseudomonas aeruginosa, ATCC27853, 3.2 μg/mL, at 2 h relative to no-drug control, single experiment) worked out at 0%; in assay [2] (Pseudomonas aeruginosa, ATCC27853, 3.2 μg/mL) it was 8%. The inhibition at 6.4 µg/mL in assay [1] (Pseudomonas aeruginosa, ATCC27853, 6.4 μg/mL, at 2 h relative to no-drug control, single experiment) worked out at 21%; in assay [2] (Pseudomonas aeruginosa, ATCC27853, 6.4 μg/mL), 14%. Besides, the inhibition at 12.8 µg/mL in assay [1] (Pseudomonas aeruginosa, ATCC27853, 12.8 μg/mL, at 2 h relative to no-drug control, single experiment) was 9%; in assay [2] (Pseudomonas aeruginosa, ATCC27853, 12.8 μg/mL) it was 3%. Also, the “increase in 3H-tobramycin uptake relative to the no-fosfomycin control” value in the assay with P. aeruginosa ATCC 27853 turned out to be 170%.
Consider tobramycin sulfate, for which the MIC against S. aureus (S. aureus ATCC 29213) came to 0.25 mg/L; against S. aureus (S. aureus C051), 0.25 mg/L; with S. aureus (S. aureus C053), 0.25 mg/L; against S. aureus (S. aureus C055), 0.25 mg/L; in the assay with S. aureus (S. aureus C057), 0.5 mg/L. Further, the “% Inhibition Protein” value in assay [1] (0.8 μg/mL, at 2 h relative to no-drug control, single experiment) is 2%; in assay [1] (1.6 μg/mL, at 2 h relative to no-drug control, single experiment), 6%; in assay [1] (3.2 μg/mL, at 2 h relative to no-drug control, single experiment), 42%. Further, in assay [1] (1.6 μg/mL (FIG. 5)), the “time to 50% inhibition (T1/2) of protein synthesis” value was over 3 h. In addition, the figures for the “% Inhibition Cell Wall” value in assay [2] (0.8 μg/mL), in assay [2] (1.6 μg/mL) and in assay [2] (3.2 μg/mL) were 4%, 10% and 36%, respectively.
